From patent publication US11135236B2, “Retinoic acid receptor gamma agonists to attenuate anthracycline-induced cardiotoxicity” (Northwestern University, priority 2018, dated 2021)

Tests used:
C57BL/6J Mice = assay: mouse model of doxorubicin-induced cardiomyopathy, echocardiography; assay type: in vivo; settings: doxorubicin 3 mg kg^−1 intraperitoneal twice weekly for 3 weeks
Source text: Mouse model of doxorubicin-induced cardiomyopathy and drug administration. […] For the control group, we treated mice with corn oil in the same schedule as agonist administration. We recorded an echocardiogram once a week (day 0, day 7, day 14, and day 21) and terminated the experiment at day 21. Hearts were harvested for western blot analyses as mentioned above.
Echocardiographic evaluation. Mice were studied at baseline and weekly during the protocol under light anesthesia with isoflurane (induction 3%, maintenance 1.5%). 2D images in the parastemal short axis were obtained with a GE Vivid 7 ultrasound system (GE Healthcare) equipped with a 13 MHz transducer. Left ventricular end-systolic (LVESD) and end-diastolic (LVEDD) dimensions were measured and left ventricular fractional shortening (FS) was calculated.

RARG-KO hiPSC-CMs [1] = assay: hiPSC-CM cell viability after 72 h doxorubicin (CellTiter-Glo); assay type: cell-based, human
Method: (§1) 384-well plate-based cell viability, caspase 3/7 activity, and reactive oxygen species (ROS) assays. […] Luminescence was measured using a VarioSkan Lux Multi-Mode Reader (Thermo Scientific) with an integration time of 0.25 sec. 10 μM staurosporine (MedChemExpress) was used as a positive control. […] 10 μM staurosporine and 50 μM menadione (both MedChemExpress) was used as a positive control, respectively. Data were analyzed using Prism 7.0 software (GraphPad) using standard dose-response guidelines.

MCF7 = assay: breast cancer cell viability after 72 h of doxorubicin and RARG agonists co-treatment; assay type: cell-based, human; settings: MCF7, doxorubicin 72 h, Vehicle (no agonist)
Method: as §1
(§2) Breast cancer cell lines. Four human breast cancer cell lines were used, MCF7 (adenocarcinoma, ATCC HTB-22) and Hs 578T (carcinsarcoma, ATCC HTB-126) both cultured in RPMI 1640 (Corning) with 10% FBS (Opti-Gold, GenDEPOT), MDA-MB-231 (adenocarcinoma, ATCC HTB-26) and MDA-MB-468 (adenocarcinoma, ATCC HTB-131) both cultured in DMEM (Corning) with 10% FBS. All cells were cultured on uncoated tissue culture plates (Greiner) and passaged with TrypLE Express (Gibco).

RARG-WT hiPSC-CMs [2] = assay: caspase 3 and 7 activity after 24 h doxorubicin (Caspase 3/7-Glo); assay type: cell-based, human
Method: as §1

hiPSC-CMs [3] = assay: reactive oxygen species assay (ROS-Glo H2O2); assay type: cell-based, human; settings: isogenic hiPSC-CMs, 24 h doxorubicin
Method: as §1

RARG-OE hiPSC-CMs [4] = assay: caspase 3 and 7 activity after 24 h doxorubicin (Caspase 3/7-Glo); assay type: cell-based, human
Method: as §1

RARG-KO hiPSC-CMs [5] = assay: as above; assay type: cell-based, human
hiPSC-CMs [6] = assay: DNA damage by γH2AX staining; assay type: cell-based, human; settings: patient hiPSC-CMs, 24 h doxorubicin
Method: Immunofluorescent staining. hiPSCs were dissociated with 0.5 mM EDTA and plated onto Matrigel-coated Nunc Lab-Tek II 8-chamber slides in E8 medium for three days (E8Y for the first 24 h). Cells were fixed, permeabilized, and stained for POU5F1, SSEA4, SOX2, TRA-1-60 with the PSC 4-Marker Immunocytochemistry Kit (Invitrogen) according to manufacturer's instructions. Cardiomyocytes were dissociated with Liberase TH (as above) and plated onto Matrigel-coated No 1.5 coverslips as previously described and allowed to adhere and spread for 4 days. Cells were fixed with 4% paraformaldehyde (Electron Microscopy Services) in DPBS for 15 min at RT, permeabilized with 1% saponin (MilliporeSigma) in DPBS for 15 min at RT, blocked with 3% bovine serum albumin (BSA, MilliporeSigma) in DPBS for 30 min at RT, and stained overnight in 3% BSA/DPBS at 4° C. with 1:200 polyclonal rabbit IgG anti-TNNT2 (Abcam, ab45932), 1:500 monoclonal mouse IgG1 anti-ACTN2 (Sigma, A7811), 1:200 monoclonal rabbit IgG RARG (Abcam, ab187159), or 1:200 monoclonal mouse IgG1 γH2AX (MilliporeSigma, 05-636). […]
Flow cytometry-based DNA damage assay. […] Cells were analyzed using a CytoFLEX (Beckman Coulter) with CytExpert 2.0 software and Prism 7.0 software (GraphPad).

control hiPSC-CMs [7] = assay: hiPSC-CM cell viability after 72 h doxorubicin (CellTiter-Glo); assay type: cell-based, human
Method: as §1

Hs 578T = assay: breast cancer cell viability after 72 h of doxorubicin and RARG agonists co-treatment; settings: doxorubicin 72 h, Vehicle (no agonist)
Method: as §1, §2

RARG-WT hiPSC-CMs [8] = settings: doxorubicin LD50, agonist 0 μM, 72 h
Method: as §1

MDA-MB-231 = assay: breast cancer cell viability after 72 h of doxorubicin and RARG agonists co-treatment; settings: MDA-MB-231, doxorubicin 72 h, Vehicle (no agonist)
Method: as §1, §2

MDA-MB-468 = assay: as above; settings: MDA-MB-468, doxorubicin 72 h, Vehicle (no agonist)
Method: as §1, §2

control hiPSC-CMs [9] = assay: caspase 3 and 7 activity after 24 h doxorubicin (Caspase 3/7-Glo); assay type: cell-based, human
Method: as §1

RARG-OE hiPSC-CMs [10] = assay: hiPSC-CM cell viability after 72 h doxorubicin (CellTiter-Glo); assay type: cell-based, human
Method: as §1

RARG-WT hiPSC-CMs [11] = assay: as above; assay type: cell-based, human
Method: as §1

## COc1cccc2c1C(=O)c1c(O)c3c(c(O)c1C2=O)C[C@@](O)(C(=O)CO)C[C@@H]3O[C@H]1C[C@H](N)[C@H](O)[C@H](C)O1 [doxorubicin]
C57BL/6J Mice
  cardiac function, as assessed by fractional shortening: steady decline in cardiac function
RARG-KO hiPSC-CMs [1]
  LD50, cell viability: 1.582 µM
MCF7
  LD50: 0.490 µM
RARG-WT hiPSC-CMs [2]
  LD50, caspase 3 and 7 activity: 0.683 µM
hiPSC-CMs [3]
  ROS production: concentration-dependent increase in ROS production
RARG-OE hiPSC-CMs [4]
  LD50, caspase 3 and 7 activity: 1.83 µM
RARG-KO hiPSC-CMs [5]
  LD50, caspase 3 and 7 activity: 0.314 µM
hiPSC-CMs [6]
  DNA damage (γH2AX): concentration-dependent increase in DNA damage
Control hiPSC-CMs [7]
  half-maximal lethal dose (LD50), cell viability: 2.622 µM
Hs 578T
  LD50: 1.829 µM
RARG-WT hiPSC-CMs [8]
  RARG-WT: LD50: 0.469 µM
MDA-MB-231
  LD50: 1.301 µM
MDA-MB-468
  LD50: 1.330 µM
Control hiPSC-CMs [9]
  LD50, caspase 3 and 7 activity: 2.078 µM
RARG-OE hiPSC-CMs [10]
  LD50, cell viability: 2.724 µM
RARG-WT hiPSC-CMs [11]
  LD50, cell viability: 2.061 µM
